The text below walks through data of paper PMC12608245, “Integrated Molecular and Functional Analysis of Hop Ethanolic Extract in Caco-2 Cells: Insights into Inflammation, Barrier Function, and Transport” (International Journal of Molecular Sciences, 2025).

The subject of data set [1] is IL-6. The data set can be described thus: IL-6 production in IL-1β-stimulated Caco-2 cells (ELISA). Type of data set: cell-based. To be noted: IL-1β 10 ng/mL, 24 h. The protocol:
(§1) Caco-2 cells were seeded in 48-well plates and cultured as described above. […] Prior to application, HLE was dissolved in DMSO and sterilely transferred into fresh serum-free medium. To remove high-molecular-weight pyrogens, the extract was subjected to a two-step ultrafiltration using a Microsep™ Advance Centrifugal Device with 30 kDa and 100 kDa cut-offs (Pall Corporation, Port Washington, NY, USA), as described in Kruk et al.. After ultrafiltration, 10% FBS was added to the medium. Following a one-hour pre-incubation, IL-1β was added to each well to achieve a final concentration of 10 ng/mL. After 24 h of incubation, the supernatants were collected, and IL-6 and IL-8 concentrations were determined using the sandwich ELISA method (BD Biosciences Pharmingen).
On the technique in general: ELISA stands for enzyme-linked immunosorbent assay.

The subject of data set [2] is Caco-2 monolayers. As to the kind of experiment: Transport and metabolism of HLE constituents through Caco-2 monolayers. Type of data set: in vitro ADME. To be noted: apical to basolateral, 24 h incubation of HLE with Caco-2, based on the peak area ratio. On the procedure: Caco-2 cells were seeded and cultivated as described for the TEER measurements. After 21 days of cultivation, HLE solutions at concentrations of 12.5–100 µg/mL (prepared as for the cell viability assay) were added to the apical compartment. As a non-treated control, medium containing 0.5% DMSO was used. Supernatants from both the apical and basolateral compartments were collected at 0 h and 24 h for chromatographic analysis.
Analyses were performed using a Vanquish UHPLC system coupled with an Exploris 120 Orbitrap mass spectrometer (Thermo Scientific, Bremen, Germany) equipped with a Kinetex XB-C18 column (150 × 2.1 mm, 1.7 µm). Mobile phases consisted of (A) water and (B) acetonitrile:water (4:1, v/v), both containing 0.1% HCOOH and 5 mM NH4HCOO. […] Electrospray settings: spray voltage 3.5 kV (+)/2 kV (−); sheath/aux/sweep gas 48/11/2 Arb; ion transfer tube 320 °C; vaporizer 280 °C. Data were acquired in full-scan mode (resolution 120,000, polarity switching). MS2 spectra were obtained using stepped NCE 30/50% (resolution 15,000) and ddMS2 settings of four fragmentation scans per full scan, single-charge filter, isotope and dynamic exclusion enabled. Experimental samples were analyzed with and without fragmentation exclusion lists generated from control samples to enhance MS2 coverage. Data processing was performed in Compound Discoverer 3.4 (Thermo Scientific, Austin, TX, USA). Signals corresponding to hop extract constituents were identified based on comparison of donor compartment solution and method blank. Similarity analysis and molecular networking (mzMine 4.6) were based on shared fragments or constant m/z shifts.
In general terms: Caco-2 monolayers are a common model of the intestinal barrier.

Data set [3] relates to IL-8. As to the kind of experiment: IL-8 production in IL-1β-stimulated Caco-2 cells (ELISA). Type of data set: cell-based. To be noted: IL-1β-stimulated control, IL-1β 10 ng/mL, 24 h. On the procedure:
as §1

Data set [4] has as its system IL-6. As to the kind of experiment: Caco-2 inflammatory model selection, IL-6 production (ELISA). Type of data set: cell-based. The note with it: IL-1β 25 and 12.5 ng/mL, 24 h. On the procedure: (§2) Cells were seeded in 48-well plates and cultured as described above. After reaching 100% confluence, they were stimulated with different concentrations and combinations of the following factors: TNF-α (1, 12.5, 25 ng/mL), LPS from E. coli (1, 5, 10 µg/mL), IFN-γ (1, 10, 50 ng/mL), a mixture of IFN-γ and TNF-α (1 + 1, 10 + 10, 50 + 50 ng/mL), and IL-1β (0.01, 0.02, 0.04, 0.08, 1, 12.5, 25 ng/mL). […] After 24 h of incubation, the supernatants were collected, and IL-6 and IL-8 concentrations were determined using the sandwich ELISA method (BD Biosciences Pharmingen, San Diego, CA, USA).

The subject of data set [5] is Caco-2 monolayers. As to the kind of experiment: TEER measurement of Caco-2 monolayer. Format: cell-based. The note with it: for TEER: IL-1β control. On the procedure: Caco-2 cells were cultivated in 6-well plates on a Transwell transparent insert (Greiner Bio-One, Kremsmünster, Austria) with density of 6 × 10^5 cells/insert for 21 days. (37 °C, 5% CO2) Medium that was used contained the earlier mentioned ingredients. Three mL of medium was added to the apical compartment, and 3.5 mL was added to the basolateral compartment. The medium was replaced three times per week. CellZscope systems for 24-well and 6-well formats (nanoAnalytics GmbH, Münster, Germany) were used to analyze the TEER. Solutions were made as described in Section 4.5 with concentrations 12.5–100 µg/mL. As non-treated control, medium containing 0.5% DMSO was used. The medium in the apical compartment was replaced with the HLE solutions or control. After a 24-h incubation period 25 ng/mL of IL-1β was added in basolateral compartment.

Data set [6] has as its system Caco-2 monolayers. On the set-up: method as in Van de Walle et al. [20]. To be noted: IL-1β 25 ng/mL, Caco-2 cell monolayers; ref Van de Walle et al. [20]; cited from earlier work.
Data set [7] concerns IL-8. As to the kind of experiment: Caco-2 inflammatory model selection, IL-8 production (ELISA). Format: cell-based. The note with it: 24 h. On the procedure: as §2

Molecule `C[C@@H]1C[C@H]2[C@@H]3CCC4=CC(=O)C=C[C@]4(C)[C@@]3(F)[C@@H](O)C[C@]2(C)[C@@]1(O)C(=O)CO` [Dexamethasone, reference compound] had an IL-6 level with IL-6 [1] (dexamethasone 20 µM (positive control), compared with the IL-1β-stimulated control) of 3.7 ± 0.3%.
In the case of `CC(C)=CCC(=O)[C@@]1(O)C(=O)C(C(=O)C(C)C)=C(O)[C@@]1(O)CC=C(C)C` [Peak M10, cohumulinone], the “Transport Efficiency (%)” value with Caco-2 monolayers [2] is 9%.
Still for that read-out and setting: next, `COc1cc(O)c(CC=C(C)C)c(O)c1C(=O)/C=C/c1ccc(O)cc1` [Peak M13, xanthohumol]: 3.5%.
On the same count and under the same terms, next, `CC(C)=CCC1=C(O)C(O)(CC=C(C)C)C(=O)C(C(=O)C(C)C)=C1O` (stereo not drawn) [Peak M14, cohumulone]: 9.5%.
On the same count and under the same terms, as for `CC(C)=CCC1=C(O)C(O)(CC=C(C)C)C(=O)C(C(=O)CCC(C)C)=C1O` (stereo not drawn) [Peak M17, prehumulone], the figure is 4.3%.
With “IL-1β: pro-inflammatory cytokine used as inflammatory trigger”, in the data set on IL-8 [3], the IL-8 level amounted to 100.8 ± 5.5%. Also, the “IL-6 secretion versus non-treated control” value in the data set on IL-6 [4] is “increase IL-6 at concentrations of 25 and 12.5 ng/mL significantly”. Besides, the TEER with Caco-2 monolayers [5] (33 h) came to 83.97 ± 4.20%; with Caco-2 monolayers [5] (42 h) it was 84.25 ± 1.33%. The molecule further gave a TEER value decrease in the data set on Caco-2 monolayers [5] (after 24 h of exposure to 25 ng/mL IL-1β) of 16 ± 1%. Also, the TEER reduction result in the data set on Caco-2 monolayers [6] is given as “approximately 20 ± 4%”. For the same molecule, the IL-6 level in the data set on IL-6 [1] (IL-1β-stimulated control) worked out at 103.3 ± 1.7%. The “IL-8 secretion versus non-treated control” value with IL-8 [7] (IL-1β 25, 12.5, 1, 0.08 and 0.04 ng/mL) was “significantly increased IL-8 secretion”.
Regarding TNF-α, in the data set with IL-8 [7] (TNF-α 25 and 12.5 ng/mL), the “IL-8 secretion versus non-treated control” value is reported as “significantly increased IL-8 secretion”.
Regarding hulupone/adhulupone [Peak M4], the “Transport Efficiency (%)” value in the data set with Caco-2 monolayers [2] was 3.7%.
The same measure, in the same setting: next, “hydroxy-n-humulinone/hydroxyadhumolinone [Peak M11]”: 17.4%.
On the same count and under the same terms, as for “n-humulinone/adhumulinone isomer 1 [Peak M7]”, the figure is 6.9%.
Still for that read-out and setting: as for “n-humulinone/adhumulinone isomer 2 [Peak M12]”, the figure is 11.7%; as for “n-humulone/adhumulone isomer 1 [Peak M15]”, 8%; as for “n-humulone/adhumulone isomer 2 [Peak M16]”, 9.6%.
For tetrahydro-iso-α-acid [Peak M6], the “Transport Efficiency (%)” value in the data set on Caco-2 monolayers [2] stood at 2%.
